Values quoted from earlier work as cited in patent US20070197495A1, “ANTI-PARASITIC COMPOUNDS AND METHODS OF THEIR USE” (THE REGENTS OF THE UNIVERSITY OF CALIFORNIA, priority 2004, published 2007).

How the values were obtained:
T. cruzi [1] = settings: mouse model study (Engel et al. 1998)
T. cruzi [2] = settings: cruzain inhibitor added to cultures of mammalian cells exposed to trypomastigotes or already infected with amastigotes

For `CN1CCN(C(=O)NC(Cc2ccccc2)C(=O)NC(C=CS(=O)(=O)c2ccccc2)CCc2ccccc2)CC1` (centres unmarked) [N-methyl piperazine-Phe-homoPhe-vinyl sulfone phenyl], the “outcome of treatment of T. cruzi-infected mice” value (T. cruzi [1]) is listed as “cure”.
For “benzyloxy-carbonyl-L-phenylalanyl L-alanine fluoromethyl ketone [Z-Phe-Ala-FMK]”, the “replication and differentiation of the parasite” value (T. cruzi [2]) is given as “blocks replication and differentiation of the parasite”.
